Experiment: xn = mol fraction of the nth substance listed
Details: 92.3 kPa, Liquid; for viscosity: Concentric cylinders viscometry; for speed of sound: Frequency=3 MHz, Single path-length method; for mass density: Vibrating tube method

OCCOCCOCCO [triethylene glycol] + O
Details | mass density, 303.15 K [kg/m3] | mass density, 308.15 K [kg/m3] | speed of sound, 303.15 K [m/s] | speed of sound, 308.15 K [m/s] | viscosity, 303.15 K [mPa·s] | viscosity, 308.15 K [mPa·s]
x1 = 0.0101 | 1006.7 | 1005.03 | 1546.6 | 1554.2 | – | –
x1 = 0.0196 | 1016.05 | 1014.27 | 1577.2 | 1582.2 | – | –
x1 = 0.025 | 1021.12 | 1019.05 | – | – | 1.425 | 1.265
x1 = 0.029 | 1025.03 | 1022.86 | 1604.2 | 1606.8 | – | –
x1 = 0.0381 | 1032.5 | 1030.16 | 1626.5 | 1627 | – | –
x1 = 0.0489 | 1040.16 | 1037.64 | – | – | 2.135 | 1.865
x1 = 0.0496 | 1041.07 | 1038.52 | 1650.4 | 1648.6 | – | –
x1 = 0.0601 | 1048.1 | 1045.38 | 1668.4 | 1664.8 | – | –
x1 = 0.0689 | 1053.32 | 1050.48 | 1680.7 | 1675.8 | – | –
x1 = 0.0754 | 1056.69 | 1053.78 | – | – | 3.109 | 2.68
x1 = 0.0801 | 1059.3 | 1056.32 | 1693.4 | 1687 | – | –
x1 = 0.0905 | 1064.27 | 1061.17 | 1702.5 | 1695 | – | –
x1 = 0.0993 | 1068.24 | 1065.07 | – | – | 4.145 | 3.561
x1 = 0.0996 | 1068.21 | 1065.01 | 1708.8 | 1700.4 | – | –
x1 = 0.1479 | 1083.73 | 1080.2 | 1722.1 | 1710.8 | – | –
x1 = 0.15 | 1085.03 | 1081.49 | – | – | 6.732 | 5.617
x1 = 0.1993 | 1094.5 | 1090.78 | – | – | 9.456 | 7.962
x1 = 0.2004 | 1093.95 | 1090.24 | 1716.5 | 1703.7 | – | –
x1 = 0.2462 | 1099.63 | 1095.85 | 1705.3 | 1691.9 | – | –
x1 = 0.2526 | 1100.4 | 1096.6 | – | – | 12.39 | 10.33
x1 = 0.2998 | 1103.65 | 1099.82 | – | – | 14.86 | 12.25
x1 = 0.3004 | 1103.99 | 1100.16 | 1690.6 | 1676.8 | – | –
x1 = 0.3474 | 1106.59 | 1102.74 | 1678.1 | 1664.2 | – | –
x1 = 0.3539 | 1106.3 | 1102.46 | – | – | 17.36 | 14.19
x1 = 0.3948 | 1108.5 | 1104.64 | 1666.6 | 1652.5 | – | –
x1 = 0.4009 | 1108.18 | 1104.33 | – | – | 19.33 | 15.72
x1 = 0.4467 | 1110.04 | 1106.18 | 1655.4 | 1641.2 | – | –
x1 = 0.4492 | 1109.87 | 1106.02 | – | – | 21.06 | 17.03
x1 = 0.4992 | 1111.36 | 1107.51 | – | – | 22.58 | 18.22
x1 = 0.5021 | 1111.28 | 1107.42 | 1644.9 | 1630.7 | – | –
x1 = 0.548 | 1112.08 | 1108.22 | 1637.5 | 1623.2 | – | –
x1 = 0.5484 | 1112.51 | 1108.65 | – | – | 23.9 | 19.23
x1 = 0.5923 | 1112.73 | 1108.87 | 1631 | 1616.6 | – | –
x1 = 0.5996 | 1113.32 | 1109.45 | – | – | 24.96 | 20.07
x1 = 0.6442 | 1113.33 | 1109.46 | 1624.5 | 1610.1 | – | –
x1 = 0.6506 | 1113.74 | 1109.87 | – | – | 25.86 | 20.77
x1 = 0.701 | 1113.89 | 1110.02 | – | – | 26.76 | 21.48
x1 = 0.7095 | 1113.94 | 1110.08 | 1617.7 | 1603.2 | – | –
x1 = 0.7531 | 1114.3 | 1110.43 | 1613.4 | 1598.8 | – | –
x1 = 0.7567 | 1113.98 | 1110.11 | – | – | 27.55 | 22.1
x1 = 0.7859 | 1114.55 | 1110.68 | 1610.5 | 1595.9 | – | –
x1 = 0.8035 | 1114.18 | 1110.31 | – | – | 28.08 | 22.51
x1 = 0.8387 | 1114.87 | 1111 | 1606.6 | 1591.9 | – | –
x1 = 0.8406 | 1114.51 | 1110.64 | – | – | 28.48 | 22.83
x1 = 0.8981 | 1115.27 | 1111.39 | – | – | 28.88 | 23.14
x1 = 0.9031 | 1115.25 | 1111.37 | 1602 | 1587.2 | – | –
x1 = 0.9181 | 1115.31 | 1111.42 | 1601.3 | 1586.5 | – | –
x1 = 0.9344 | 1115.4 | 1111.52 | 1600.4 | 1585.5 | – | –
x1 = 0.9489 | 1115.8 | 1111.91 | – | – | 29.26 | 23.46
x1 = 0.9569 | 1115.5 | 1111.62 | 1599 | 1584.2 | – | –
x1 = 0.9782 | 1115.59 | 1111.71 | 1597.9 | 1583 | – | –
x1 = 1 | 1115.7 | 1111.81 | 1596.6 | 1581.7 | 29.59 | 23.72
